Patent US10669242B2 (priority 2016, dated 2020)

target: T1, recombinant glucosyltransferase domain of C. difficile Toxin B/TcdB (Clostridioides difficile, UniProt P18177); experiment: biochemical
T1 construct: 6-His (C); purchased R&D Systems 6246-GT
T1 sequence (P18177 1-543): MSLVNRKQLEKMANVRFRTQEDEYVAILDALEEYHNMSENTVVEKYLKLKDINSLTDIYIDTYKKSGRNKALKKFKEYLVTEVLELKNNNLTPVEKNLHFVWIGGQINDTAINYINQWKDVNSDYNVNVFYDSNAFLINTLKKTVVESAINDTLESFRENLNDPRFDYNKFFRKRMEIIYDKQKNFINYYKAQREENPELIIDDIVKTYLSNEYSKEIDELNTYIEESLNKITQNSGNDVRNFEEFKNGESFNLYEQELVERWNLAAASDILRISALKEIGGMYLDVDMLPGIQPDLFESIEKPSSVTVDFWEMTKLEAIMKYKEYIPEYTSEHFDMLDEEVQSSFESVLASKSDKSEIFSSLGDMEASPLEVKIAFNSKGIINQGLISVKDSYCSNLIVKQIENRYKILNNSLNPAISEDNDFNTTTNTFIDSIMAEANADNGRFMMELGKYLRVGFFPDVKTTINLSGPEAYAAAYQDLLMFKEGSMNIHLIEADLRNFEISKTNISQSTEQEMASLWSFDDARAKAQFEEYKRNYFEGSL

SMILES	IC50
COc1cc(CN2C(=O)c3ccc(Cl)cc3NC(=O)[C@H]2Cc2ccccn2)ccc1C(=O)O [Example 7d, (R)-4-((8-chloro-2,5-dioxo-3-(pyridin-2-ylmethyl)-2,3-dihydro-1H-benzo[e][1,4]diazepin-4(5H)-yl)methyl)-2-methoxybenzoic acid]	100 to 999 nM
O=C(O)c1ccc(CN2C(=O)c3ccc(Cl)cc3NC(=O)[C@H]2Cc2ccccn2)cc1-c1ccncc1 [Example 8a, (R)-4-((8-Chloro-2,5-dioxo-3-(pyridin-2-ylmethyl)-2,3-dihydro-1H-benzo[e][1,4]diazepin-4(5H)-yl)methyl)-2-(pyridin-4-yl)benzoic Acid]	100 to 999 nM
COc1cccc(-c2cc(CN3C(=O)c4ccc(Cl)cc4NC(=O)[C@H]3Cc3ccccn3)ccc2C(=O)O)c1 [Example 8b, (R)-5-((8-chloro-2,5-dioxo-3-(pyridin-2-ylmethyl)-2,3-dihydro-1H-benzo[e][1,4]diazepin-4(5H)-yl)methyl)-3′-methoxy-[1,1′-biphenyl]-2-carboxylic acid]	100 to 999 nM
O=C(O)c1ccc(CN2C(=O)c3ccc(Cl)cc3NC(=O)[C@H]2Cc2ccccn2)cc1-c1ccc2c(c1)OCO2 [Example 8c, (R)-2-(benzo[d][1,3]dioxol-5-yl)-4-((8-chloro-2,5-dioxo-3-(pyridin-2-ylmethyl)-2,3-dihydro-1H-benzo[e][1,4]diazepin-4(5H)-yl)methyl)benzoic acid]	100 to 999 nM
O=C(O)c1ccc(CN2C(=O)c3ccc(Cl)cc3NC(=O)[C@H]2Cc2ccccn2)cc1-c1ccc(F)cc1 [Example 8d, (R)-5-((8-chloro-2,5-dioxo-3-(pyridin-2-ylmethyl)-2,3-dihydro-1H-benzo[e][1,4]diazepin-4(5H)-yl)methyl)-4′-fluoro-[1,1′-biphenyl]-2-carboxylic acid]	100 to 999 nM
O=C(O)c1ccc(CN2C(=O)c3ccc(Cl)cc3NC(=O)[C@H]2Cc2ccccn2)cc1-c1ccccc1 [Example 8e, (R)-5-((8-chloro-2,5-dioxo-3-(pyridin-2-ylmethyl)-2,3-dihydro-1H-benzo[e][1,4]diazepin-4(5H)-yl)methyl)-[1,1′-biphenyl]-2-carboxylic acid]	100 to 999 nM
COc1ccc(-c2cc(CN3C(=O)c4ccc(Cl)cc4NC(=O)[C@H]3Cc3ccccn3)ccc2C(=O)O)cc1 [Example 8f, (R)-5-((8-chloro-2,5-dioxo-3-(pyridin-2-ylmethyl)-2,3-dihydro-1H-benzo[e][1,4]diazepin-4(5H)-yl)methyl)-4′-methoxy-[1,1′-biphenyl]-2-carboxylic acid]	100 to 999 nM
Cc1ccc(-c2cc(CN3C(=O)c4ccc(Cl)cc4NC(=O)[C@H]3Cc3ccccn3)ccc2C(=O)O)cc1 [Example 8g, (R)-5-((8-chloro-2,5-dioxo-3-(pyridin-2-ylmethyl)-2,3-dihydro-1H-benzo[e][1,4]diazepin-4(5H)-yl)methyl)-4′-methyl-[1,1′-biphenyl]-2-carboxylic acid]	100 to 999 nM
Cc1cccc(-c2cc(CN3C(=O)c4ccc(Cl)cc4NC(=O)[C@H]3Cc3ccccn3)ccc2C(=O)O)c1 [Example 8h, (R)-5-((8-chloro-2,5-dioxo-3-(pyridin-2-ylmethyl)-2,3-dihydro-1H-benzo[e][1,4]diazepin-4(5H)-yl)methyl)-3′-methyl-[1,1′-biphenyl]-2-carboxylic acid]	100 to 999 nM
O=C(O)c1ccc(CN2C(=O)c3ccc(Cl)cc3NC(=O)[C@H]2Cc2ccccn2)cc1-c1ccc(Cl)cc1 [Example 8i, (R)-4′-chloro-5-((8-chloro-2,5-dioxo-3-(pyridin-2-ylmethyl)-2,3-dihydro-1H-benzo[e][1,4]diazepin-4(5H)-yl)methyl)-[1,1′-biphenyl]-2-carboxylic acid]	100 to 999 nM
O=C(O)c1ccc(CN2C(=O)c3ccc(Cl)cc3NC(=O)[C@H]2Cc2ccccn2)cc1-c1cccc(Cl)c1 [Example 8j, (R)-3′-chloro-5-((8-chloro-2,5-dioxo-3-(pyridin-2-ylmethyl)-2,3-dihydro-1H-benzo[e][1,4]diazepin-4(5H)-yl)methyl)-[1,1′-biphenyl]-2-carboxylic acid]	100 to 999 nM
O=C(O)c1ccc(CN2C(=O)c3ccc(Cl)cc3NC(=O)[C@H]2Cc2ccccn2)cc1-c1cccc(F)c1 [Example 8k, (R)-5-((8-chloro-2,5-dioxo-3-(pyridin-2-ylmethyl)-2,3-dihydro-1H-benzo[e][1,4]diazepin-4(5H)-yl)methyl)-3′-fluoro-[1,1′-biphenyl]-2-carboxylic acid]	100 to 999 nM
O=C(O)c1ccc(CN2C(=O)c3ccc(Cl)cc3NC(=O)[C@H]2Cc2ccccn2)cc1-c1ccc(F)c(Cl)c1 [Example 8l, (R)-3′-chloro-5-((8-chloro-2,5-dioxo-3-(pyridin-2-ylmethyl)-2,3-dihydro-1H-benzo[e][1,4]diazepin-4(5H)-yl)methyl)-4′-fluoro-[1,1′-biphenyl]-2-carboxylic acid]	100 to 999 nM
O=C(O)c1ccc(CN2C(=O)c3ccc(Cl)cc3NC(=O)[C@H]2Cc2ccccn2)cc1-c1cccnc1 [Example 8m, (R)-4-((8-chloro-2,5-dioxo-3-(pyridin-2-ylmethyl)-2,3-dihydro-1H-benzo[e][1,4]diazepin-4(5H)-yl)methyl)-2-(pyridin-3-yl)benzoic acid]	1000 to 10000 nM
CC(=O)Nc1ccc(-c2cc(CN3C(=O)c4ccc(Cl)cc4NC(=O)[C@H]3Cc3ccccn3)ccc2C(=O)O)cc1 [Example 8n, (R)-4′-acetamido-5-((8-chloro-2,5-dioxo-3-(pyridin-2-ylmethyl)-2,3-dihydro-1H-benzo[e][1,4]diazepin-4(5H)-yl)methyl)-[1,1′-biphenyl]-2-carboxylic acid]	100 to 999 nM
CNC(=O)c1ccc(-c2cc(CN3C(=O)c4ccc(Cl)cc4NC(=O)[C@H]3Cc3ccccn3)ccc2C(=O)O)cc1 [Example 8o, (R)-5-((8-chloro-2,5-dioxo-3-(pyridin-2-ylmethyl)-2,3-dihydro-1H-benzo[e][1,4]diazepin-4(5H)-yl)methyl)-4′-(methylcarbamoyl)-[1,1′-biphenyl]-2-carboxylic acid]	1000 to 10000 nM
CNC(=O)c1cccc(-c2cc(CN3C(=O)c4ccc(Cl)cc4NC(=O)[C@H]3Cc3ccccn3)ccc2C(=O)O)c1 [Example 8p, (R)-5-((8-chloro-2,5-dioxo-3-(pyridin-2-ylmethyl)-2,3-dihydro-1H-benzo[e][1,4]diazepin-4(5H)-yl)methyl)-3′-(methylcarbamoyl)-[1,1′-biphenyl]-2-carboxylic acid]	100 to 999 nM
CC(=O)Nc1cccc(-c2cc(CN3C(=O)c4ccc(Cl)cc4NC(=O)[C@H]3Cc3ccccn3)ccc2C(=O)O)c1 [Example 8q, (R)-3′-acetamido-5-((8-chloro-2,5-dioxo-3-(pyridin-2-ylmethyl)-2,3-dihydro-1H-benzo[e][1,4]diazepin-4(5H)-yl)methyl)-[1,1′-biphenyl]-2-carboxylic acid]	100 to 999 nM
O=C(O)c1ccc(CN2C(=O)c3ccc(Cl)cc3NC(=O)[C@H]2Cc2ccccn2)cc1-c1cn[nH]c1 [Example 8r, (R)-4-((8-chloro-2,5-dioxo-3-(pyridin-2-ylmethyl)-2,3-dihydro-1H-benzo[e][1,4]diazepin-4(5H)-yl)methyl)-2-(1H-pyrazol-4-yl)benzoic acid]	100 to 999 nM
Cn1nccc1-c1cc(CN2C(=O)c3ccc(Cl)cc3NC(=O)[C@H]2Cc2ccccn2)ccc1C(=O)O [Example 8s, (R)-4-((8-chloro-2,5-dioxo-3-(pyridin-2-ylmethyl)-2,3-dihydro-1H-benzo[e][1,4]diazepin-4(5H)-yl)methyl)-2-(1-methyl-1H-pyrazol-5-yl)benzoic acid]	1000 to 10000 nM
Cc1noc(C)c1-c1cc(CN2C(=O)c3ccc(Cl)cc3NC(=O)[C@H]2Cc2ccccn2)ccc1C(=O)O [Example 8t, 4-(((R)-8-chloro-2,5-dioxo-3-(pyridin-2-ylmethyl)-2,3-dihydro-1H-benzo[e][1,4]diazepin-4(5H)-yl)methyl)-2-(3,5-dimethylisoxazol-4-yl)benzoic acid]	1000 to 10000 nM
Cn1cc(-c2cc(CN3C(=O)c4ccc(Cl)cc4NC(=O)[C@H]3Cc3ccccn3)ccc2C(=O)O)cn1 [Example 8u, (R)-4-((8-chloro-2,5-dioxo-3-(pyridin-2-ylmethyl)-2,3-dihydro-1H-benzo[e][1,4]diazepin-4(5H)-yl)methyl)-2-(1-methyl-1H-pyrazol-4-yl)benzoic acid]	1000 to 10000 nM
Cc1ccc(NC(=O)c2ccc(CN3C(=O)c4ccc(Cl)cc4NC(=O)[C@H]3CCO)cc2)nc1 [Example 9a, (R)-4-((8-Chloro-3-(2-hydroxyethyl)-2,5-dioxo-2,3-dihydro-1H-benzo[e][1,4]diazepin-4(5H)-yl)methyl)-N-(5-methylpyridin-2-yl)benzamide]	100 to 999 nM
Cc1ccc(NC(=O)c2ccc(CN3C(=O)c4ccc(Cl)cc4NC(=O)[C@H]3CCN3CCOCC3)cc2)nc1 [Example 10a, (R)-4-((8-Chloro-3-(2-morpholinoethyl)-2,5-dioxo-2,3-dihydro-1H-benzo[e][1,4]diazepin-4(5H)-yl)methyl)-N-(5-methylpyridin-2-yl)benzamide]	1000 to 10000 nM
Cc1ccc(NC(=O)c2ccc(CN3C(=O)c4ccc(Cl)cc4NC(=O)[C@H]3CCN3CCCCC3)cc2)nc1 [Example 10b, (R)-4-((8-chloro-2,5-dioxo-3-(2-(piperidin-1-yl)ethyl)-2,3-dihydro-1H-benzo[e][1,4]diazepin-4(5H)-yl)methyl)-N-(5-methylpyridin-2-yl)benzamide]	10000 to 35000 nM
Cc1ccc(NC(=O)c2ccc(CN3C(=O)c4ccc(Cl)cc4NC(=O)[C@H]3CCN3CCC(O)CC3)cc2)nc1 [Example 10c, (R)-4-((8-chloro-3-(2-(4-hydroxypiperidin-1-yl)ethyl)-2,5-dioxo-2,3-dihydro-1H-benzo[e][1,4]diazepin-4(5H)-yl)methyl)-N-(5-methylpyridin-2-yl)benzamide]	1000 to 10000 nM
Cc1ccc(NC(=O)c2ccc(CN3C(=O)c4ccc(Cl)cc4NC(=O)[C@H]3CCN3CCN(C)CC3)cc2)nc1 [Example 10d, (R)-4-((8-chloro-3-(2-(4-methylpiperazin-1-yl)ethyl)-2,5-dioxo-2,3-dihydro-1H-benzo[e][1,4]diazepin-4(5H)-yl)methyl)-N-(5-methylpyridin-2-yl)benzamide]	1000 to 10000 nM
Cc1ccc(NC(=O)c2ccc(CN3C(=O)c4ccc(Cl)cc4NC(=O)[C@H]3CCN3CCNC(=O)C3)cc2)nc1 [Example 10e]	1000 to 10000 nM
